Several values for one entry are separate records, joined by “and”; a condition that tells them apart may be missing. Identical values can stand only once.
Details: Crystal; for mass density: 295.1 K, 101.33 kPa, pellet size and mass; for vapor or sublimation pressure: Calculated from knudsen effusion weight loss

Nc1ccc2[nH]ncc2c1 [5-aminoindazole]
Details	mass density [kg/m3]	vapor or sublimation pressure
–	1400	–
358.12 K	–	8.43e-05 kPa and 8.3e-05 kPa
360.18 K	–	0.000101 kPa and 0.0001064 kPa and 0.000103 kPa
362.16 K	–	0.0001305 kPa and 0.0001265 kPa and 0.0001259 kPa
364.11 K	–	0.0001563 kPa and 0.0001589 kPa and 0.0001556 kPa
366.17 K	–	0.0001991 kPa and 0.0001966 kPa and 0.0001879 kPa
368.17 K	–	0.0002397 kPa and 0.0002332 kPa and 0.0002247 kPa
370.13 K	–	0.0002948 kPa and 0.0002986 kPa
372.18 K	–	0.0003483 kPa and 0.0003696 kPa and 0.0003499 kPa
374.15 K	–	0.0004435 kPa and 0.0004334 kPa and 0.0004198 kPa
376.13 K	–	0.0005419 kPa and 0.000534 kPa and 0.0005297 kPa
378.17 K	–	0.0006618 kPa and 0.000668 kPa and 0.0006232 kPa
380.16 K	–	0.0007639 kPa and 0.0007696 kPa and 0.0007519 kPa

Nc1ccc2cn[nH]c2c1 [6-aminoindazole]
Details	mass density [kg/m3]	vapor or sublimation pressure
–	1450	–
366.14 K	–	0.0001031 kPa and 0.0001023 kPa and 0.0001025 kPa
368.17 K	–	0.0001275 kPa and 0.0001257 kPa and 0.0001221 kPa
370.18 K	–	0.0001528 kPa and 0.0001513 kPa and 0.0001468 kPa
372.14 K	–	0.0001919 kPa and 0.0001878 kPa and 0.0001923 kPa
374.16 K	–	0.0002356 kPa and 0.000234 kPa and 0.0002228 kPa
376.17 K	–	0.0002875 kPa and 0.0002739 kPa
378.15 K	–	0.0003523 kPa and 0.0003592 kPa and 0.0003463 kPa
380.16 K	–	0.0004332 kPa and 0.000428 kPa and 0.0004138 kPa
382.17 K	–	0.0005244 kPa and 0.0005044 kPa and 0.0005114 kPa
384.15 K	–	0.0006281 kPa and 0.0006132 kPa and 0.0006304 kPa
386.16 K	–	0.0007813 kPa and 0.0007708 kPa and 0.0007396 kPa
388.17 K	–	0.0009109 kPa and 0.0008984 kPa and 0.0008878 kPa

Source: the NIST ThermoML archive (doi:10.1016/j.jct.2010.04.026)
